Patent US20160128982A1, “ANTIMICROBIAL COMPOSITIONS AND METHODS OF USE” (DERMCARE-VET PTY LTD, priority 2013, published 2016)

Experiments:
[1] = tested on: S. pseudintermedius isolates; experiment: Agar dilution MIC and FICI, isolates from dogs (Example 3); format: cell-based, Staphylococcus pseudintermedius; details: miconazole alone
Method: (§1) The miconazole was initially dissolved in propylene glycol but dilutions were prepared by diluting this solution with water. […] Two isolates of Staphylococcus pseudintermedins of different origin were used. After incubation the plates were examined to determine the lowest concentration that inhibited growth of the microbe. The concentrations were used to calculate the Fractional Inhibitory Concentration Index (FICI) which is a measure of synergism between the components in the combination. The FICI is calculated using the following equations: […]≦0.5 Indicates synergy between components FICI>0.5-4.0 indicates no interaction between components FICI>4.0 indicates antagonism between components The procedure from Example 2 was repeated with different bacterial and fungal isolates obtained from dogs with bacterial or fungal infections. Eight S. pseudintermedius isolates obtained from eight different dogs and three M. pachydermatis isolates from three different dogs were analysed.

[2] = tested on: Staphylococcus pseudintermedius; experiment: Well diffusion, zone of inhibition on Mueller-Hinton agar; format: cell-based; details: 37° C. 18 to 24 hours; for Zone of Inhibition: 50 μL per well
Method: (§2) 1. To determine whether propylene glycol was a suitable solvent to solubilize miconazole. A Mueller-Hinton agar (MH) plate containing a well was inoculated with Staphylococcus pseudintermedius and a Sabouraud dextrose agar (SAB) plate containing a 6 mm well was inoculated with Malassezia pachydermatis. The wells were filled with 50 μL propylene glycol and the MH plate were incubated at 37° C. for 18 to 24 hours and the SAB plate was incubated at 30 to 35° C. for 72 hours. The plates were then observed for any inhibition of microbial growth around the well.
(§3) 2. To determine suitable concentrations of miconazole and PHMB, MH agar plates containing wells were inoculated with S. pseudintermedius and SAB plates containing wells were inoculated with M. pachydermatis. The wells were filled with 50 μL of varying concentrations of miconazole or PHMB. The MH plates were incubated at 37° C. for 18 to 24 hours and the SAB plates were incubated at 30 to 35° C. for 48 hours.
(§4) After incubation, the diameter of the zone of inhibition around the well was measured.

[3] = tested on: M. pachydermatis isolates; experiment: Agar dilution MIC and FICI, isolates from dogs (Example 3); format: cell-based, Malassezia pachydermatis; details: miconazole alone
Method: as §1

Malassezia pachydermatis = experiment: Well diffusion, zone of inhibition on Sabouraud dextrose agar; format: cell-based
Method: as §2, §3, §4

Candida albicans = experiment: Agar dilution MIC and FICI (Example 2); format: cell-based; details: miconazole alone
Method: (§5) The MIC of PHMB, miconazole and mixtures of PHMB and miconazole were determined by adding varying concentrations of each component or their combination to molten Mueller-Hinton agar and SAB agar. The miconazole was initially dissolved in propylene glycol but dilutions were prepared by diluting this solution with water.
(§6) The concentrations of miconazole, PHMB or combination of PHMB and miconazole tested included:
(§7) A drop of microbial suspension containing one of: • a) Staphylococcus pseudintermedius and • b) Candida albicans
(§8) was added to a MH agar plate and SAB plate respectively of each concentration of each concentration of miconazole, PHMB and combinations thereof and the MH plates were incubated for 24 to 48 hours at 37° C. and the SAB plates were incubated at 20 to 35° C. for 48 hours. Two isolates of Staphylococcus pseudintermedins of different origin were used.
(§9) After incubation the plates were examined to determine the lowest concentration that inhibited growth of the microbe.
(§10) The concentrations were used to calculate the Fractional Inhibitory Concentration Index (FICI) which is a measure of synergism between the components in the combination. The FICI is calculated using the following equations:
(§11) FICMICONAZOLE=MICMICONAZOLE+PHMB/MICMICONAZOLE
(§12) FICPHMB=MICPHMB+MICONAZOLE/MICPHMB
(§13) FICI=FICMICONAZOLE+FICPHMB
(§14) FICI≦0.5 Indicates synergy between components
(§15) FICI>0.5-4.0 indicates no interaction between components
(§16) FICI>4.0 indicates antagonism between components

[4] = tested on: Staphylococcus pseudintermedius; experiment: Agar dilution MIC and FICI (Example 2); format: cell-based
Method: as §5, §6, §7, §8, §9, §10, §11, §12, §13, §14, §15, §16

Compound	MIC miconazole ([1]; isolate 1) [%]	MIC miconazole ([1]; isolate 2) [%]	MIC miconazole ([1]; isolate 3) [%]	MIC miconazole ([1]; isolate 4) [%]	MIC miconazole ([1]; isolate 5) [%]	MIC miconazole ([1]; isolate 6) [%]	MIC miconazole ([1]; isolate 7) [%]	MIC miconazole ([1]; isolate 8) [%]	Zone of Inhibition ([2]; Miconazole concentration 0.0009%)	Zone of Inhibition ([2]; Miconazole concentration 0.0019%)	Zone of Inhibition ([2]; Miconazole concentration 0.0039%)	MIC miconazole ([3]; isolate 1) [%]	MIC miconazole ([3]; isolate 2) [%]	MIC miconazole ([3]; isolate 3) [%]	Zone of Inhibition (Malassezia pachydermatis; Miconazole concentration 0.0009%, 50 μL per well, 30 to 35° C. 48 hours) [mm]	MIC Micon % (Candida albicans) [%]	MIC Micon % ([4]; miconazole alone, two isolates of different origin) [%]	concentration at which an antimicrobial effect begins ([4]; used alone)	inhibition of microbial growth around the well ([2]; 50 μL propylene glycol per well)	inhibition of microbial growth around the well (Malassezia pachydermatis; 50 μL propylene glycol in 6 mm well, 30 to 35° C. 72 hours)
Clc1ccc(COC(Cn2ccnc2)c2ccc(Cl)cc2Cl)c(Cl)c1 (centres unmarked) [miconazole]	0.00012	0.00012	0.00012	0.00012	0.00012	0.00012	0.00012	0.00012	14-17 mm	14-16 mm	17-18 mm	0.00003	0.00006	0.000015	25	0.00095	0.00012	about 0.00012 wt %		
CC(O)CO (centres unmarked) [propylene glycol]																			No zone of inhibition	No zone of inhibition
